Experiment: Solubility of NOBS in selected solvents
Assay type: physicochemical
Settings: TFA versus acetic acid; ambient temperature
Text: The solvent properties of TFA are unique and highly advantageous in the synthesis of phenolsulfonate esters. […] It is notable that the only solvent in which NOBS is more soluble than water is TFA. I have found no better solvent for NOBS than TFA. This is surprising. […] It is likely that hydrogen bonding in TFA facilitates the solvation of sulfonate anions but it is notable, in contrast, that such effects are much weaker in acetic acid. Furthermore, while it is known in the art that dimethyl sulfoxide (DMSO) and dimethylformamide (DMF) are relatively good solvents for benzenesulfonate esters they are much weaker solvents than TFA and because TFA has a much lower boiling point than these dipolar aprotic solvents it is the only good solvent for benzenesulfonate esters which can be readily stripped from product solutions and then purified and recycled with relative ease.

Compound: CCCCCCCCC(=O)Oc1ccc(S(=O)(=O)[O-])cc1.[Na+] [NOBS, sodium 4-(nonanoyloxy)benzene sulfonate]
- Amount of NOBS dissolved by TFA relative to the amount soluble in acetic acid: more than ten times
